Ends that are not written are not given here.
Experiments:
Assay type in all cases: cell-based
[1] = system: A2058 human melanoma cells; assay: Boyden chamber migration assay, A2058 cells; settings: FIG. 5
Method: Briefly, 16 h before the assay, 70% confluent 75 cm^2 flasks of human melanoma A2058 cell (ATCC, passage 3-12) or human aortic endothelial cells (HAEC; Cambrex, passage 4-7) were kept in basal media (dMEM+0.1% BSA, or EBM-2+1% FCS, respectively). Cells were lifted with 0.25% Trypsin/1 mM EDTA, diluted in 0.5% BSA (dMEM) and washed 3 times in basal media (dMEM+0.1% BSA) or (EBM-2+0.1% FCS,) and recovered in suspension at working density (2×10^6/ml for A2058 or 1.5×10^6 HAEC) for 1 h at 37° C. (5% CO2). For migration-inhibition assays, the cells were preincubated during the recovery period for 30 minutes in 25 μg/ml anti-integrin antibodies (Chemicon, Temecula, Calif.) or control IgG (Jackson ImmunoResearch, Inc.). All migration assays were performed in triplicate in a 48-well Boyden chamber apparatus (NeuroProbe, Cabin John, Md.). The recovered cells were added to the bottom chambers in a volume of 30 μl. The wells were overlayed with an 8 μm-pore polycarbonate membrane (NeuroProbe, Cabin John, Md.) and coated with 100 μg/ml Rat tail collagen (Trevigen, Gaithersburg, Md.) for A2058 cells or acetylated 1% gelatin from porcine skin (Sigma, St. Louis, Mo.) for HAEC. The apparatus was assembled and stored inverted at 37° C. (5 CO2) for a 2 h adhesion-period. […] Readings represent the number of cells migrating through the membrane (the sum of two high power X 20 fields/well, averaged for each sextuplicate-well set).

[2] = system: human aortic endothelial cells (HuAEC); assay: Boyden chamber migration assay, HuAEC; settings: FIG. 3; for migration of HuAECs: 200 ng/ml Tropoelastin, 10 μM peptides, BSA control
Method: Migration of HuAECs to BSA, fibronectin, and recombinant tropoelastin was measured.
We assayed the hexamer VGVAPG (SEQ ID No. 5). This hexameric sequence is repeated multiple times within the full length tropoelastin protein. […] We additionally assayed a 17 residue C-terminal fragment of the tropoelastin protein. This 17 amino acid residue is depicted in SEQ ID NO: 6 (IFPGGACLGKACGRKRK).
Briefly, 16 h before the assay, 70% confluent 75 cm^2 flasks of human melanoma A2058 cell (ATCC, passage 3-12) or human aortic endothelial cells (HAEC; Cambrex, passage 4-7) were kept in basal media (dMEM+0.1% BSA, or EBM-2+1% FCS, respectively). Cells were lifted with 0.25% Trypsin/1 mM EDTA, diluted in 0.5% BSA (dMEM) and washed 3 times in basal media (dMEM+0.1% BSA) or (EBM-2+0.1% FCS,) and recovered in suspension at working density (2×10^6/ml for A2058 or 1.5×10^6 HAEC) for 1 h at 37° C. (5% CO2). For migration-inhibition assays, the cells were preincubated during the recovery period for 30 minutes in 25 μg/ml anti-integrin antibodies (Chemicon, Temecula, Calif.) or control IgG (Jackson ImmunoResearch, Inc.). All migration assays were performed in triplicate in a 48-well Boyden chamber apparatus (NeuroProbe, Cabin John, Md.). The recovered cells were added to the bottom chambers in a volume of 30 μl. The wells were overlayed with an 8 μm-pore polycarbonate membrane (NeuroProbe, Cabin John, Md.) and coated with 100 μg/ml Rat tail collagen (Trevigen, Gaithersburg, Md.) for A2058 cells or acetylated 1% gelatin from porcine skin (Sigma, St. Louis, Mo.) for HAEC. The apparatus was assembled and stored inverted at 37° C. (5 CO2) for a 2 h adhesion-period. The apparatus was re-inverted and 52 μl of the chemoattractants, 10 mg/ml Fibronectin, 200 ng/ml Tropoelastin, 10 μM elastin-derived peptides; VGVAPG (SEQ ID No. 5), and IFPGGACLGKACGRKRK (SEQ ID No. 6 (Cterm peptide) or 0.1% BSA/dMEM (diluent, random migration control), were added to the upper chambers and the migration was allowed to proceed for 2 h in a humidified incubator at 37° C. (5% CO2). The membranes were then removed, fixed in methanol, stained with a Hema 3 stain set (Fisher Scientific, Pittsburgh, Pa.) and mounted migrated-side down to a 50×75 mm glass slide. Before 90% mounting medium (in xylenes) was applied, the non-migrated cells were removed from the exposed, non-migrated face of the membrane with a moistened swab. Readings represent the number of cells migrating through the membrane (the sum of two high power X 20 fields/well, averaged for each sextuplicate-well set).

[3] = system: A2058 human melanoma cells; assay: Cell adhesion assay, A2058 cells; settings: for adhesion of A2058 cells in comparison to BSA: FIG. 4, coated substrates, peptide 10 μM
Method: A2058 cells were assayed for adherence to substrates coated with BSA (control), fibronectin, tropoelastin, or a bioactive fragment of tropoelastin corresponding to a single repeat of the hexameric sequence VGVAPG (SEQ ID No. 5). In comparison to adherence to BSA, A2058 cells adhered to substrates coated with fibronectin tropoelastin, or a bioactive fragment of tropoelastin.
(§1) Cells were harvested with 0.25% trypsin/1 mM EDTA, washed three times in adhesion buffer (0.5% BSA in basal medium), suspended at a working density of 5×10^5/ml in adhesion buffer, and then allowed to recover for 1 h at 37° C. (5% CO2). For integrin-blocking assays, 25 μg/ml anti-integrin antibodies (Chemicon, Temecula, Calif.) or control IgG (Jackson ImmunoResearch Laboratories, Inc, West Grove, Pa.) were added to the cell suspension during the recovery period. During the cell recovery, the coated 96-well plates were washed twice in dPBS and blocked for 1 h at 25° C. in 5.0% BSA (dPBS). The blocking solution was removed, and the wells were washed twice in dPBS. Recovered cells were added to the coated wells in a volume of 100 μl per well and placed at 37° C. for 30 minutes (5% CO2). Following this incubation, the assay plate was inverted and assay wells were washed twice with 100 μl dPBS to remove non-specifically adhered cells. The wells were then fixed in Zamboni fixative, stained with Gill 1 hematoxylin, and overlayed with 80% glycerol. The assay was imaged at 100× magnification, capturing 3 random fields/well on a Zeiss Axiovert 200 inverted microscope equipped with a Zeiss Axiocam digital camera. Readings represent the number of adherent cells/well (average six high powered 100× fields, three taken from each of two separate wells).

CHO cells = assay: Cell adhesion assay on coated culture plates, CHO cells; settings: culture plates coated with 10 ug/ml protein; 0.1% BSA control
Method: (§2) Cells were plated on culture plates coated with either 0.1% BSA (as a control), 10 ug/ml fibronectin (FN), or 10 ug/ml recombinant tropoelastin, and assayed for adherence to the coated substrate.
as §1, with “96-well plates were coated in duplicate overnight at 4° C. with 10 μg/ml collagen, fibronectin, tropoelastin, or 0.1% bovine serum albumin (BSA). Cells” for “Cells”, “Following this incubation, the assay plate was inverted and assay wells were washed twice with 100 μl dPBS to remove non-specifically adhered cells. The wells were then fixed in Zamboni fixative, stained with Gill 1 hematoxylin, and overlayed with 80% glycerol. The assay was imaged at 100× magnification, capturing 3 random fields/well on a Zeiss Axiovert 200 inverted microscope equipped with a Zeiss Axiocam digital camera.” left out

[4] = system: human embryonic kidney cells (HEK 293); assay: Cell adhesion assay on coated culture plates, HEK 293 cells; settings: culture plates coated with 10 ug/ml protein; 0.1% BSA control
Method: as §2
as §1, with “96-well plates were coated in duplicate overnight at 4° C. with 10 μg/ml collagen, fibronectin, tropoelastin, or 0.1% bovine serum albumin (BSA). Cells” for “Cells”, “Following this incubation, the assay plate was inverted and assay wells were washed twice with 100 μl dPBS to remove non-specifically adhered cells. The wells were then fixed in Zamboni fixative, stained with Gill 1 hematoxylin, and overlayed with 80% glycerol. The assay was imaged at 100× magnification, capturing 3 random fields/well on a Zeiss Axiovert 200 inverted microscope equipped with a Zeiss Axiocam digital camera.” left out

[5] = system: human aortic endothelial cells (HuAEC); assay: Cell adhesion assay on coated culture plates, HuAEC; settings: culture plates coated with 10 ug/ml protein; 0.1% BSA control
Method: as §2
as §1, with “96-well plates were coated in duplicate overnight at 4° C. with 10 μg/ml collagen, fibronectin, tropoelastin, or 0.1% bovine serum albumin (BSA). Cells” for “Cells”

[6] = system: human aortic smooth muscle cells (HuAoSMC); assay: Cell adhesion assay on coated culture plates, HuAoSMC; settings: culture plates coated with 10 ug/ml protein; 0.1% BSA control
Method: as §2
as §1, with “96-well plates were coated in duplicate overnight at 4° C. with 10 μg/ml collagen, fibronectin, tropoelastin, or 0.1% bovine serum albumin (BSA). Cells” for “Cells”, “Following this incubation, the assay plate was inverted and assay wells were washed twice with 100 μl dPBS to remove non-specifically adhered cells. The wells were then fixed in Zamboni fixative, stained with Gill 1 hematoxylin, and overlayed with 80% glycerol. The assay was imaged at 100× magnification, capturing 3 random fields/well on a Zeiss Axiovert 200 inverted microscope equipped with a Zeiss Axiocam digital camera.” left out

Row | Substance | level of A2058 migration compared among tropoelastin and fragments [1] | level of HuAEC migration relative to comparator [2] | migration of HuAECs [2] | level of A2058 adhesion relative to full length tropoelastin ([3]; 10 μM of a single repeat of the hexameric sequence) | adhesion of A2058 cells in comparison to BSA [3] | adhesion of CHO cells to the coated substrate (CHO cells) | adhesion of HEK 293 cells to the coated substrate [4] | adhesion of HuAEC to the coated substrate [5] | adhesion of HuAoSMC to the coated substrate [6]
1 | IFPGGACLGKACGRKRK (chemically synthesized bioactive fragment of tropoelastin) [C-terminal fragment] | promoted migration of A2058 cell at comparable levels | at least as well as, and possibly better than, the fall length tropoelastin protein | promoted migration of endothelial cells | – | – | – | – | – | –
2 | VGVAPG | promoted migration of A2058 cell at comparable levels | at least as well as, and possibly better than, the fall length tropoelastin protein | promoted migration of endothelial cells | at a level similar to 10 μg/ml of full length tropoelastin | promoted adhesion of A2058 cells | – | – | – | –
3 | fibronectin [reference compound] | – | – | – | – | adhered | adhered to fibronectin | adhered to fibronectin | adhered to fibronectin | adhered to fibronectin
